Measurements: patent US12559490B2, “Compositions and methods for modulating hair growth” (The Regents of the University of California, priority 2020, dated 2026)

How the values were obtained:
[1] = Solubility testing in a polyethylene glycol/transcutol/ethanol/DMSO formulation; type: physicochemical; conditions: for Conc.: concentration tested in formulation of about 25-75% polyethylene glycol, 5-20% transcutol, 5-50% ethanol, 5-10% DMSO, room temperature, Notes column says whether it dissolved; for Notes (dissolved / failed to dissolve): stirred 1 hour, overnight or 24 hours at room temperature
Description: Results are detailed in the table below.

[2] = target: T1, Mitochondrial Pyruvate Carrier (MPC) (Homo sapiens, UniProt O95563+Q9Y5U8); test: Pyruvate-driven respiration (OCR, XF96) in permeabilized HepG2 cells to test MPC; type: cell-based; conditions: pyruvate/malate substrate, nine-point dose-response, 1 or 3 replicates
T1 sequence (Q9Y5U8 1-109): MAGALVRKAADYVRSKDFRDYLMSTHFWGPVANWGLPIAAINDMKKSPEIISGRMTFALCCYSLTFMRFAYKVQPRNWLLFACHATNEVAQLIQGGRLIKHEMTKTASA
T1 sequence (O95563 1-127): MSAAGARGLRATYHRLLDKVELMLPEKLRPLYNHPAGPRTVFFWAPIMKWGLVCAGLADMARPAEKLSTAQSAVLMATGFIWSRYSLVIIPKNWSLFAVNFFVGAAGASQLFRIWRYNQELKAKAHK

SMILES | Conc. [1] [% w/w] | IC50 [2] [nM] | Notes (dissolved / failed to dissolve) [1]
N#C/C(=C\c1cn(Cc2ccccc2F)c2ncccc12)C(=O)O [PP35, (E)-2-cyano-3-(1-(2-fluorobenzyl)-1H-pyrrolo[2,3-b]pyridin-3-yl)acrylic acid] | 0.1 | 34 | –
N#C/C(=C\c1cn(Cc2ccccn2)c2ncccc12)C(=O)O [PP38, Sodium (E)-2-cyano-3-(1-(pyridin-2-ylmethyl)-1H-pyrrolo[2,3-b]pyridin-3-yl)acrylate] | – | 183 | –
N#C/C(=C\c1cn(Cc2cccc(C(F)(F)F)c2)c2ncccc12)C(=O)O [PP27, (E)-2-Cyano-3-(1-(3-(trifluoromethyl)benzyl)-1H-pyrrolo[2,3-b]pyridin-3-yl) acrylic acid] | 0.15 | 36.3 | Stirred 1 hour at room temperature; dissolved
N#C/C(=C\c1cn(Cc2ccncc2)c2ncccc12)C(=O)O [PP40, Sodium (E)-2-cyano-3-(1-(pyridin-4-ylmethyl)-1H-pyrrolo[2,3-b]pyridin-3-yl)acrylate] | – | 411 | –
N#C/C(=C\c1cn(Cc2cccnc2)c2ncccc12)C(=O)O [PP39, Sodium (E)-2-cyano-3-(1-(pyridin-3-ylmethyl)-1H-pyrrolo[2,3-b]pyridin-3-yl)acrylate] | – | 262 | –
N#C/C(=C\c1cn(Cc2ccccc2C(F)(F)F)c2ncccc12)C(=O)O [PP26, (E)-2-Cyano-3-(1-(2-(trifluoromethyl)benzyl)-1H-pyrrolo[2,3-b]pyridin-3-yl) acrylic acid] | 0.1 | 54 | Stirred 1 hour at room temperature; dissolved
N#C/C(=C\c1cn(Cc2cc(C(F)(F)F)cc(C(F)(F)F)c2)c2ncccc12)C(=O)O [JXL069, reference compound] | 0.027 | 51.2 | Stirred overnight at room temperature; dissolved
N#C/C(=C\c1cn(Cc2ccc(F)cc2)c2ncccc12)C(=O)O [PP37, (E)-2-cyano-3-(1-(4-fluorobenzyl)-1H-pyrrolo[2,3-b]pyridin-3-yl)acrylic acid] | – | 109 | –
N#C/C(=C\c1cn(Cc2cccc(F)c2)c2ncccc12)C(=O)O [PP36, (E)-2-cyano-3-(1-(3-fluorobenzyl)-1H-pyrrolo[2,3-b]pyridin-3-yl)acrylic acid] | 0.1 | 26 | –
